According to patent US20240002445A1, “TYROSYL-LOCK PEPTIDES” (The United States of America,as represented by the …, priority 2020, published 2024):
Entries after “also recorded” stand apart in the source; their conditions may differ. Blank lines part the entries; values can stand above or below the molecule they belong to. Bridge positions count the residues as written; N and C are the ends. Square brackets hold non-standard residues; d marks the D form. Ends that are not written are not given here. Peptide text beside a SMILES is read from it. pGlu = O=C1CC[C@@H](C(=O)O)N1

Legend:
[1] = biological target: T1, FL-TDP1 (Homo sapiens, UniProt Q9NUW8); experiment: FL-TDP1 FRET assay without TCEP (recifin A and analogues); assay type: biochemical; conditions: for TDP1 inhibitory activity (FRET assay): TCEP omitted; for IC50: IC50 μM (FL-TDP1 inhibitory activity), 1 nM FL-TDP1, 0.25 μM substrate, T=15 min, 1XPBS pH 7.4, 80 mM KCl, -TCEP, high-test concentration 20 μM
T1 construct: either full-length TDP1 or Δ1-147TDP1 was diluted to 1×
T1 sequence (Q9NUW8 whole entry): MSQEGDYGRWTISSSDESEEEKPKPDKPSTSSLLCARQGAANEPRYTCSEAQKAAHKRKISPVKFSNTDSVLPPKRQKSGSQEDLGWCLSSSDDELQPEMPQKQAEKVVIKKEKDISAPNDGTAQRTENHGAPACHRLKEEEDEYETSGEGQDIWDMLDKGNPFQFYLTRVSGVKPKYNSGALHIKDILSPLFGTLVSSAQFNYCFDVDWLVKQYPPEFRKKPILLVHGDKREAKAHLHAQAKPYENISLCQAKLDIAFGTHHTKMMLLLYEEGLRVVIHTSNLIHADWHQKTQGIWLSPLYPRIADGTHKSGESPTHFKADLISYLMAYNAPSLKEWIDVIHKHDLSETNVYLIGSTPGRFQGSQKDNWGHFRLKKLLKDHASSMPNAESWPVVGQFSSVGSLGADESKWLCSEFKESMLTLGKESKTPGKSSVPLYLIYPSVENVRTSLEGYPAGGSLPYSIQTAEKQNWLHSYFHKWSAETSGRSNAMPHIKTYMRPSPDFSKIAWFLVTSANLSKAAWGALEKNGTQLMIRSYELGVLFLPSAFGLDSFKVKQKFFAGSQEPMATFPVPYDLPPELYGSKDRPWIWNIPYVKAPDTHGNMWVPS
Method: For these FRET assays, TCEP was omitted from the reaction buffer. Peptides were evaluated for FL-TDP1 inhibitory activity using an 8-pt, 10^0.5 dilution series at a high-test concentration of 20 μM. RXN conditions: 1 nM FL-TDP1, 0.25 μM substrate, T=15 min.; rxn buffer (1XPBS pH 7.4, 80 mM KCl) (-TCEP). See FIGS. 21A and 21B and FIG. 22.

[2] = test system: T2, recifin A (native, isolated from the marine sponge Axinella sp.)
T2 sequence: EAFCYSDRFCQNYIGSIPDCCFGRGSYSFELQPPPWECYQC

[3] = biological target: full-length recombinant human Tyrosyl-DNA phosphodiesterase 1 (TDP1) (human) (UniProt Q9NUW8); experiment: cell-based or functional assay
Sequence of full-length recombinant human Tyrosyl-DNA phosphodiesterase 1 (TDP1) (human) (Q9NUW8 whole entry, the tested form may be a part): as the sequence (Q9NUW8 whole entry) above

[4] = biological target: T3, Δ147TDP1 (Homo sapiens, UniProt Q9NUW8); experiment: FRET-based TDP1 enzymatic activity inhibition assay, N-terminally truncated TDP1; assay type: biochemical
T3 construct: a truncated catalytic domain of TDP1 lacking the N-terminal regulatory domain (Δ1-147)
T3 sequence (Q9NUW8 148-608, stated change not applied): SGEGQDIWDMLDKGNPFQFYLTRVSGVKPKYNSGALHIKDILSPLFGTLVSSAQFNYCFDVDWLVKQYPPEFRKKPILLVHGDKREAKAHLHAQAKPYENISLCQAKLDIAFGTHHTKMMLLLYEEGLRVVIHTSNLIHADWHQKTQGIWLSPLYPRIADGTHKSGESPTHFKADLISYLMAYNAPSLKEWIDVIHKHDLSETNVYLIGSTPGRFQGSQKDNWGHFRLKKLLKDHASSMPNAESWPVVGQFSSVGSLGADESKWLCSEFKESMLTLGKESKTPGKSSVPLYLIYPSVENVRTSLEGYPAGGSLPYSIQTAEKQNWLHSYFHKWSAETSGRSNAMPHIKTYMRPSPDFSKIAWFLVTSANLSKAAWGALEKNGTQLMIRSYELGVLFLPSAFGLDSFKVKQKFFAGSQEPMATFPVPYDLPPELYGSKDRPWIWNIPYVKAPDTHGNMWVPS
Method: (§1) FRET-based TDP1 enzymatic activity inhibition assays were carried out as previously described (Bermingham, et al., SLAS Discov., 2472555217717200 (2017)). Briefly, for Michaelis-Menten analysis, an eight-point FRET substrate concentration response was used (from 0.01-3 μM substrate) in the presence of 0, 0.2, 0.5, 1, and 2 μM recifin A. Quadruplicate reactions were setup in which a 1.25× concentration of either full-length TDP1 or Δ1-147TDP1 was diluted to 1× by the addition of a […] solution of substrate and recifin A to reach a final concentration of 0.5 nM TDP1 (full length or truncated) and the indicated substrate and recifin A concentration in 1× Phosphate Buffered Saline (PBS) pH 7.4, 80 mM potassium chloride, 1 mM TCEP, referred to as “1× TDP1 buffer.” After dilution these reactions were transferred to a black small volume 384-well plate (Greiner Bio-One, Monroe, NC). Fluorescence measurements (excitation: 520 nm, emission: 550 nm) were taken at 30 sec intervals for 1 h using a i3x SpectraMax plate reader (Molecular Devices, Sunnyvale, CA). Reaction progression curves for each condition were examined for linearity over the time course and the reaction rate for each condition was determined by linear regression using GraphPad Prism software (version 8.3.1, San Diego, CA). Reaction rates were replotted in terms of substrate concentration, and kinetic parameters for each recifin A treatment concentration were calculated by non-linear regression (GraphPad Prism) according to the following equation: […]
(§2) For IC50 determinations, a 12-point concentration response curve was prepared over a recifin A concentration range of 0-15 μM. This was accomplished by diluting a 5X stock solution of recifin A and TDP1 FRET substrate into a stock solution of 1.25× TDP1 buffer containing 0.625 nM full-length TDP1 or Δ147TDP1, bringing the final concentration to 1× TDP1 buffer, 0.5 nM enzyme (or a no enzyme control), 1 μM FRET substrate, and 0-15 μM recifin A. Reactions were setup in triplicate using the same plates and plate reader described above for the kinetic measurements. Reaction wells were read at 0 (T0) and 15 (T15) min after initiation. The T15 data was background corrected by subtracting T0 fluorescence measurements. Corrected data was normalized to a control with no enzyme present (0% activity) and a vehicle control (100% activity). Recifin A concentrations were converted to logio-values and normalized data were fitted to the following equation by nonlinear regression (least squares fit with a variable slope) and an IC50 value was calculated using GraphPad Prism software: […]

[5] = biological target: T4, human TDP1 complemented DT40 knockout whole cell extracts (hTDP1 WCE) (Homo sapiens, UniProt Q9NUW8); experiment: TDP1 inhibition assay with radiolabeled oligonucleotide in whole cell extract; assay type: biochemical; conditions: 2 μg/mL hTDP1 WCE from TDP1-/- DT40 cells complemented with human TDP1
T4 construct: expressed in transfected cells; host or cells: TDP1-/- DT40 (chicken B-lymphocyte) cells complemented with human TDP1; whole cell extract
T4 sequence (Q9NUW8 whole entry): as the sequence (Q9NUW8 whole entry) above
Method: (§3) The reactions were carried out in a final volume of 10 μL in 1×LMP 1 reaction buffer (50 mM Tris-HCl, pH 7.5, 80 mM KCl, 2 mM EDTA, 1 mM DTT, 40 μg/mL BSA, 0.01% TWEEN 20) at room temperature for 15 minutes and terminated by adding 10 μ−L of 2×stop buffer (99.5% formamide, 10 mM EDTA, 0.01% methylene blue, 0.01% bromophenol blue).

[6] = biological target: TDP1 (Homo sapiens, UniProt Q9NUW8); experiment: High-throughput biochemical assay for inhibition of TDP1 enzymatic activity (bioassay-guided fractionation); conditions: comparison among peptide constituents of fractions A-D of Axinella sp. aqueous extract
Sequence of TDP1 (Q9NUW8 whole entry): as above
Method: The sponge Axinella sp., (Voucher #ID 0CDN7410, NSC #C020686) was harvested at a depth of 40 m at the Thunderbolt reef, south-southwest of Cape Recife Nature Reserve, Port Elizabeth, South Africa. A voucher specimen for this collection is maintained at the Smithsonian Institution (Suitland, MD). Aqueous extracts of Axinella sp. were provided by the Natural Products Branch of the National Cancer Institute and were prepared as previously reported (McCloud, Molecules, 15(7): 4526-63 (2010)). The dried extract was reconstituted in water at a concentration of 10 mg/mL and then subjected to vacuum-assisted chromatography using Bakerbond C4 wide-pore media (Mallinckrodt Baker, Inc., Phillipsburg, NJ). Compounds were eluted using a stepwise methanol gradient of five column volumes (CV) each of 100% water, 40% methanol, 60% methanol and 100% methanol, and the resulting fractions were evaporated under vacuum and then lyophilized to dryness. A high-throughput biochemical assay for inhibition of TDP1 enzymatic activity was utilized to track fraction activity (Bermingham, et al., SLAS Discov., 2472555217717200 (2017)). […]

[7] = biological target: carboxypeptidase Y (Saccharomyces cerevisiae, UniProt P00729); conditions: native form, 1:18 enzyme to target protein by mass, 20 minutes at room temperature
Sequence of carboxypeptidase Y (P00729 112-532, species assumed): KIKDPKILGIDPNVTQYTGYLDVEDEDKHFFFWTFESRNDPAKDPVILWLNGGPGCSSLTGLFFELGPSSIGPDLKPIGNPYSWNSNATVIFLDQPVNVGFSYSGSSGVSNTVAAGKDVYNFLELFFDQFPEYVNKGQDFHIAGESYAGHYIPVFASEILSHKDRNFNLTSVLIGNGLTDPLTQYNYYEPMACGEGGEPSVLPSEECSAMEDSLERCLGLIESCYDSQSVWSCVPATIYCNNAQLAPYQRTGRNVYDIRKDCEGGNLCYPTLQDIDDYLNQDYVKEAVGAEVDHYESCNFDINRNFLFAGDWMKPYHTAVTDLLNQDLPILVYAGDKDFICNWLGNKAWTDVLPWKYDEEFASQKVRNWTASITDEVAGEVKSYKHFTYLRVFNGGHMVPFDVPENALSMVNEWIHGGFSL

[8] = biological target: chymotrypsin (Bos taurus, UniProt P00766); conditions: native form, 1:20 enzyme to target protein by mass, overnight at room temperature
[9] = biological target: trypsin (Bos taurus, UniProt P00760); conditions: native form, 1:20 enzyme to target protein by mass, overnight at 37° C.
Sequence of trypsin (P00760 24-246): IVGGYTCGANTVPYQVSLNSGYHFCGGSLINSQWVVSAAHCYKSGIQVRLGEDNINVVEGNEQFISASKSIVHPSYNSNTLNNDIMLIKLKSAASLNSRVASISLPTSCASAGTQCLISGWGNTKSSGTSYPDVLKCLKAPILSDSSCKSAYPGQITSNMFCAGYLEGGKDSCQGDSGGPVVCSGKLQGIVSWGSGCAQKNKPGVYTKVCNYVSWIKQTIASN

[10] = biological target: pyroglutamate aminopeptidase (Pyrococcus furiosus, UniProt O73944)
Sequence of pyroglutamate aminopeptidase (O73944 whole entry): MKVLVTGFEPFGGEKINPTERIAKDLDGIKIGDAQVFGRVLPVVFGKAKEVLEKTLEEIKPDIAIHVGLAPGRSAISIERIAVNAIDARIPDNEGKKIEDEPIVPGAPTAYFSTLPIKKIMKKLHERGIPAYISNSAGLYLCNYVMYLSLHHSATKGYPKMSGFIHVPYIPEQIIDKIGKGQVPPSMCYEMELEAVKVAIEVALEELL

[11] = biological target: T5, full-length TDP1 (Homo sapiens, UniProt Q9NUW8); experiment: biochemical
T5 sequence (Q9NUW8 whole entry): as the sequence (Q9NUW8 whole entry) above
Method: as §3

[12] = biological target: T5, full-length TDP1; experiment: FRET-based TDP1 enzymatic activity inhibition assay, full-length TDP1 (1x TDP1 buffer with TCEP); assay type: biochemical; design: either full-length TDP1 or Δ1-147TDP1 was diluted to 1×; conditions: for effect on Vmax of full-length TDP1 / effect on Km of full-length TDP1: steady-state analysis; for effect on Km of full-length TDP1: sub-micromolar concentrations of recifin A
Method: as §1, §2

[13] = Stability of recifin A to handling, solvents and RP-HPLC
[14] = biological target: N-terminal truncated TDP1 (Δ147TDP1) (UniProt Q9NUW8); experiment: cell-based or functional assay
Sequence of N-terminal truncated TDP1 (Δ147TDP1) (Q9NUW8 148-608, stated change not applied): as the sequence (Q9NUW8 148-608, stated change not applied) above

[15] = full-length TDP1, Michaelis-Menten analysis, 0-2 μM recifin A

Molecule: CC[C@H](C)[C@@H]1NC(=O)[C@H](Cc2ccc(O)cc2)NC(=O)[C@H](CC(N)=O)NC(=O)[C@H](CCC(N)=O)NC(=O)[C@@H]2CSSC[C@@H]3NC(=O)[C@H](CCC(=O)O)NC(=O)[C@H](Cc4c[nH]c5ccccc45)NC(=O)[C@@H]4CCCN4C(=O)[C@@H]4CCCN4C(=O)[C@@H]4CCCN4C(=O)[C@H](CCC(N)=O)NC(=O)[C@H](CC(C)C)NC(=O)[C@H](CCC(=O)O)NC(=O)[C@H](Cc4ccccc4)NC(=O)[C@H](CO)NC(=O)[C@H](Cc4ccc(O)cc4)NC(=O)[C@H](CO)NC(=O)CNC(=O)[C@H](CCCNC(=N)N)NC(=O)CNC(=O)[C@H](Cc4ccccc4)NC(=O)[C@H](CSSC[C@@H](C(=O)O)NC(=O)[C@H](CCC(N)=O)NC(=O)[C@H](Cc4ccc(O)cc4)NC3=O)NC(=O)[C@H](CSSC[C@H](NC(=O)[C@H](Cc3ccccc3)NC(=O)[C@H](C)N)C(=O)N[C@@H](Cc3ccc(O)cc3)C(=O)N[C@@H](CO)C(=O)N[C@@H](CC(=O)O)C(=O)N[C@@H](CCCNC(=N)N)C(=O)N[C@@H](Cc3ccccc3)C(=O)N2)NC(=O)[C@H](CC(=O)O)NC(=O)[C@@H]2CCCN2C(=O)[C@H]([C@@H](C)CC)NC(=O)[C@H](CO)NC(=O)CNC1=O [Truncated, Recifin (3-42)] (H-AFCYSDRFCQNYIGSIPDCCFGRGSYSFELQPPPWECYQC-OH; disulfide 3-19, 9-37, 20-40)
TDP1 inhibitory activity (FRET assay) [1]: no TDP1 inhibitory activity
IC50 [1]: > 10 µM

Molecule: N-terminal truncated TDP1 (Δ147TDP1)
Km and Vmax of the Δ147TDP1 FRET assay [2]: recifin A had overlapping 95% confidence intervals for both Km and Vmax with the untreated controls, indicating that recifin A does not affect the enzymatic activity of truncated TDP1

IC50 µM, FL-TDP1 FRET inhibition assay without TCEP [3]: > 10 µM
Molecule: Recifin (3-42) (peptide)

IC50 µM, FL-TDP1 FRET inhibition assay without TCEP [3]: > 10 µM
Molecule: [Ala10] recifin (peptide)

IC50 µM, FL-TDP1 FRET inhibition assay without TCEP [3]: 0.69 µM
Molecule: [Pro1] recifin (peptide)

Molecule: [pGlu]EAFCYSDRFCQNYIGSIPDCCFGRGSYSFELQPPPWECYQC (disulfide 5-21, 11-39, 22-42) [recifin A]
effect on enzymatic activity of truncated TDP1 (Δ147TDP1) ([4]; FRET assay, TDP1 lacking N-terminal regulatory domain (Δ1-147)): does not affect the enzymatic activity; also recorded: not affecting the activity
inhibition at 1.5 µM ([4]; at the highest concentration (1500 nM), read-out: maximal inhibition of Δ147TDP1): ~20%
effect on Km of Δ147TDP1 ([4]; Δ147TDP1 FRET assay): did not affect
effect on Vmax of Δ147TDP1 ([4]; Δ147TDP1 FRET assay): did not affect
inhibition of TDP1 processing of the radiolabeled oligonucleotide in whole-cell extract [5]: retained the ability to inhibit
IC50 [1]: 1.63 µM
TDP1 inhibitory activity of Axinella sp. peptides/fractions [6]: most active
digestion with carboxypeptidase Y [7]: resistant
digestion with chymotrypsin [8]: resistant
digestion with trypsin [9]: resistant
digestion with pyroglutamate aminopeptidase ([10]; native form, 2 microgram peptide to 0.2 milliunits enzyme, PBS pH 7.4, 24 hour at 37 C): resistant
digestion with pyroglutamate aminopeptidase: N-terminal pyroglutamate residue ([10]; same conditions in phosphate buffer containing 10 mM DTT): fully removed
IC50 [11]: 2.4 µM
IC50 [12]: 0.19 µM
increase in Km for the substrate [12, 15]: approximately 6 fold
increase in observed Vmax [12, 15]: approximately 1.6 fold
effect on Vmax of full-length TDP1 [12]: modest increase
effect on Km of full-length TDP1 [12]: increased
effect on Km of full-length TDP1 ([12]; listed as Recifin A): in-creased
effect on Vmax of full-length TDP1 ([12]; listed as Recifin A): in-creased
activity after processing ([13]; DTP extract preparation, drying under nitrogen gas at room temperature, freezing at -20° C., -80° C. and on dry ice, lyophilization, freezing and thawing): still active
stability during RP-HPLC procedures ([13]; room temperature and 40° C., with and without 0.05% v/v TFA (pH approx. 2)): stable
stability in solvents and buffers ([13]; water, PBS pH 7.4, Tris HCl pH 8.0, methanol, acetonitrile, DMSO): stable

Molecule: [pGlu]EAFCYSDRFCQNYIGSIPDCCFGRGSYSFELQPPPWECYQC-OH (disulfide 5-21, 11-39, 22-42) [Synthetic, Recifin]
TDP1 inhibitory activity (FRET assay) [1]: have TDP1 inhibitory activity
IC50 [1]: 0.5 µM

Molecule: full-length recombinant human Tyrosyl-DNA phosphodiesterase 1 (TDP1)
effect on the observed Vmax, FRET steady-state kinetics [2]: approximately 1.6-fold higher
recifin A-dependent increase in the Km for the substrate, FRET steady-state kinetics [2]: approximately 6-fold higher

maximal inhibition of enzymatic activity, FRET assay [14]: 20%
IC50 µM, FL-TDP1 FRET inhibition assay without TCEP [3]: 1.63 µM
IC50, inhibition of TDP1 cleavage of a 5'-radiolabeled oligonucleotide DNA substrate containing a 3'-phosphotyrosyl residue (gel assay) [3]: 2.4 µM
apparent IC50, FRET-based TDP1 enzymatic activity inhibition assay [3]: 0.19 µM
Molecule: recifin A (native, isolated from the marine sponge Axinella sp.) (peptide)

IC50 µM, FL-TDP1 FRET inhibition assay without TCEP [3]: 0.5 µM
Molecule: synthetic recifin A (peptide)
